Assay: Solubility evaluation in combinations of solvent systems
Assay type: physicochemical
Protocol: In addition, the solubility of nalmefene in varying concentrations was evaluated using different combinations of solvent systems. The solvent systems included combinations of polar solvents with different surface active agents. Exemplary surface active agents included: Tween 20, Tween 80, […]® 34/44, KOLLIPHOR® HS 15, SOLUTOL® NF, LABRAFIL® M2125 CS and LABRAFIL® M1944 CS.

Measured: Observation (solubility)

C=C1CC[C@@]2(O)[C@H]3Cc4ccc(O)c5c4[C@@]2(CCN3CC2CC2)[C@H]1O5 [nalmefene]
Completely Soluble,: ID 1, Ethanol:Water 75:25, nalmefene 200 mg/mL | ID 2 (second), Ethanol:Water:Propylene Glycol 82.5:12.5:5, nalmefene 200 mg/mL | ID 2, Ethanol:Water:Tween 20 75:24.5:0.5, nalmefene 250 mg/mL | ID 3, Ethanol:Water:Propylene Glycol 68:22:10, nalmefene 350 mg/mL | ID 5, Ethanol:Water:Propylene Glycol:Tween 80 70:25:4:1, nalmefene 350 mg/mL | ID 6, Ethanol:Water:Glycerine 70:20:10, nalmefene 300 mg/mL | ID 7, Ethanol:Water:Gelucire 34/14 75:20:5, nalmefene 200 mg/mL | ID 8, Ethanol:Water:Labrafil M2125 CS 80:17.5:2.5, nalmefene 200 mg/mL | ID 9, Ethanol:Water:Labrafil M1944 CS 80:17.5:2.5, nalmefene 200 mg/mL
